Results as given in patent publication US5731155A, “Compositions for inhibition of intracellular transcription factors and methods therefor” (Washington University, priority 1996, dated 1998).
Where a SMILES comes first, the peptide text is derived from it. [ ]: non-standard residue; d: D form. pY = N[C@@H](Cc1ccc(OP(=O)(O)O)cc1)C(=O)O

Assays:
[1] = system: IFNγ receptor α chain; test: IFNγ dependent tyrosine phosphorylation of the IFNγ receptor α chain in Colo-205 cells (4G10 western blot); format: cell-based, human; conditions: pretreatment of Colo-205 cells with 1 mM
Excerpt: For these experiments, Colo-205, a human adenocarcinoma cell line obtained from the ATCC, was used because it was known to express a high number of IFNγ receptors (10,000 receptors/cell) and has been well characterized with regard to both biologic responsiveness to IFNγ and IFNγ receptor […] phosphorylation (Hershey and Schreiber, 1989; Hershey et al., 1990 both of which are incorporated by reference). Colo-205 cells (5-10×10^7) were resuspended in one ml of PBS-10% FCS and were then incubated at 37° C., either in the presence or absence of rHuIFNγ (10,000 IRU). Purified recombinant human IFNγ was provided by Dr. Susan Kramer of Genentech, Inc. (South San Francisco, Calif.). […] Purified rHuIFNγ was radioiodinated, using Bolton Hunter reagent (ICN Chemicals, Radioisotope Division, Irvine, Calif.) to specific activities of 6.5-17.8 μCi/μg as described in Celada et al. (J Clin Invest 76:2196-2205, 1985 which is incorporated by reference). The reaction was stopped by adding 4 mls of ice-cold PBS. Cells were pelleted, washed once in ice-cold PBS, and then lysed in one ml of lysis buffer (25 mM Tris-HCl (pH 8.0), 1% NP-40, 150 mM NaCl, 1 mM sodium orthovanadate, 10 mM NaF, 1 mM PMSF, 5mM iodoacetamide, […] leupeptin and aprotinin). Solubilized cells were centrifuged at 15,000×g to remove cell nuclei and the supernatants were then incubated with 10 μg of GIR-94 for 30 minutes at 4° C. Protein G sepharose was added to the reaction mixture and the incubation continued for an additional 30 minutes. […]
To determine the amount of receptor precipitated at each time point, aliquots from each immunoprecipitate were subjected to western blot analysis using a monoclonal antibody (GIR-94, a murine antibody IgG2b) that is specific for the human IFNγ receptor extracellular domain. In the absence of added IFNγ, no tyrosine phosphorylated receptor was detected (FIG. 1, lane 1). […]

[2] = system: Colo-205 cells; test: IFNγ dependent MHC class II induction on Colo-205 cells; format: cell-based, human; conditions: pretreatment of Colo-205 cells with 1 mM
Protocol: To further characterize the tyrosine phosphorylation of the […] receptor and to partially validate its biologic significance, concomitant dose-response phosphorylation and MHC class II induction analyses were performed. Colo-205 cells (1×10^8 cells/ml) were stimulated for 5 minutes with the indicated concentrations of rHuIFNγ as shown in FIG. 2. Cells were lysed and the IFNγ receptor immunoprecipitated, subjected to SDS-PAGE and electrophoretically transferred to nitrocellulose membranes as described above. Membranes were blotted with the mAb 4G10 (anti-phosphotyrosine) as described. Colo-205 cells (1×10^8 cells/ml) were also stimulated for 5 minutes with the indicated concentrations of rHuIFNγ, washed, and incubated an additional 48 hours in the absence of rHuIFNγ. MHC class II expression was quantitated by flow cytometric analysis.

[3] = target: T1, p91 (Homo sapiens, UniProt P42224); test: Electrophoretic mobility shift assay (EMSA) of IFNγ-induced p91 activation in Colo-205 homogenates; format: biochemical; conditions: phosphopeptide 3 μM
T1 construct: endogenous in cells; host or cells: Colo-205 (human adenocarcinoma) cell homogenates
T1 sequence (P42224 1-750): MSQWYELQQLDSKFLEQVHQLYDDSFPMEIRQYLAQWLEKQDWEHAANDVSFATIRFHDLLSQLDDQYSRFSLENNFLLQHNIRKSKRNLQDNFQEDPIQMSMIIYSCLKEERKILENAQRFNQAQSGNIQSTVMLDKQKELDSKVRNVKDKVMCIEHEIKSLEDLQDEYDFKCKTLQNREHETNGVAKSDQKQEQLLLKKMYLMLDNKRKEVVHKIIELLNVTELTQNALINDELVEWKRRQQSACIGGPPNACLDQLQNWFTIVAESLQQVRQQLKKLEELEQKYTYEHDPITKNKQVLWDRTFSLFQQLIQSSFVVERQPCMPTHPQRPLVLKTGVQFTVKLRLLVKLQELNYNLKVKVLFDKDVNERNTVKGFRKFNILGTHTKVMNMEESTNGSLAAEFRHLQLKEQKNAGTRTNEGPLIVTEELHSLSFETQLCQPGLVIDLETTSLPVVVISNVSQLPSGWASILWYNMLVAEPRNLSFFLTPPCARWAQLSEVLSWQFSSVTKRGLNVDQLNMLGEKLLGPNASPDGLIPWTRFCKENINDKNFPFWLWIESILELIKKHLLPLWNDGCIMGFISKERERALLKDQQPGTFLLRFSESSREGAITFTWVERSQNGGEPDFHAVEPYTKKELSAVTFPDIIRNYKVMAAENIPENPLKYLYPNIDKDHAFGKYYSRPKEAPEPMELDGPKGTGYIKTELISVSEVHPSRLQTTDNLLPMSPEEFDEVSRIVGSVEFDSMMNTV
Excerpt: For this example, the finding that the latent IFNγ inducible transcription factor, p91, can be activated by IFNγ in a cell free system (Igarashi et al., Mol Cell Biol 13:1634-1640, 1993 which is incorporated by reference) was utilized to determine the biologic significance of the IFNγ induced tyrosine phosphorylation of the Y440 residue in the IFNγ receptor molecule. Colo-205 homogenates were stimulated with 1900 IRU of human IFNγ and p91 activation monitored using an electrophoretic mobility gel shift assay (EMSA) that employed a ^32 P-labeled 18 bp probe derived from the FcγR I gene promoter (Pearse et al., Proc Natl Acad Sci 90:4314-4318, 1993 which is incorporated by reference). The EMSAs were carried out essentially as described (Igarashi et al., supra). […] The reactions were then electrophoresed through a 6% polyacrylamide gel in 0.25×TBE for 3 hours at 150 V. Gels were dried and subsequently analyzed by autoradiography. […] Specificity of interactions were determined by the addition of 350 ng of the unlabeled GRR probe or 560 ng of the unlabeled 41 base pair double stranded oligonucleotide containing the ISRE of ISG15 (5'-GATCCATGCCTCGGGA-[…]-3' SEQ ID NO: 14) (David and Larner, Science 257:813-815, 1992 which is incorporated by reference). […]

[4] = Specific antiviral activity of rHuIFNγ; conditions: purified recombinant human IFNγ

Molecule: CO[C@H]1[C@@H](OC)C[C@H](C)[C@@H](OC)C2=CC(=O)C=C(NC(=O)/C(C)=C/C=C\[C@H](OC)[C@@H](OC(N)=O)/C(C)=C/[C@@H]1C)C2=O [herbimycin A, reference compound]
- IFNγ dependent tyrosine phosphorylation of the IFNγ receptor α chain [1]: inhibited
- IFNγ dependent MHC class II induction [2]: blocked

Molecule: C[C@@H](O)[C@H](N)C(=O)N[C@@H](CO)C(=O)N[C@@H](Cc1ccccc1)C(=O)NCC(=O)N[C@@H](Cc1ccc(OP(=O)(O)O)cc1)C(=O)N[C@@H](CC(=O)O)C(=O)N[C@@H](CCCCN)C(=O)N1CCC[C@H]1C(=O)N[C@@H](Cc1c[nH]cn1)C(=O)O [SEQ ID NO:3, Thr-Ser-Phe-Gly-Xaa-Asp-Lys-Pro-His] (H-TSFG[pY]DKPH-OH)
- inhibition of formation of activated p91-labeled probe complex [3]: 61%

B1: rHuIFNγ: Purified recombinant human IFNγ provided by Genentech, Inc. (protein, UniProt P01579 24-161, looked up)
Interferon gamma: QDPYVKEAENLKKYFNAGHSDVADNGTLFLGILKNWKEESDRKIMQSQIVSFYFKLFKNFKDDQSIQKSVETIKEDMNVKFFNSNKKKRDDFEKLTNYSVTDLNVQRKAIHELIQVMAELSPAAKTGKRKRSQMLFRG
- specific antiviral activities [4]: 3.8×10^7 IRU/mg
